Columns and labels:
NMuMG cells = experiment: Apoptosis assay (FITC Annexin V/PI) after ultraviolet irradiation; format: cell-based, mouse; settings: 2 h pretreatment, ultraviolet 30 mJ/cm^2, 24 hours, mean ± SEM
Procedure: (§1) Four groups of NMuMG cells (i.e., a normal control group referred to as Normal Control Group 1-A, an ultraviolet control group referred to as UV Control Group 1-A, and two experimental groups referred to as Experimental Groups 1-A to 2-A) and four groups of HaCaT cells (i.e., a normal control group referred to as Normal Control Group 1-B, an ultraviolet control group referred to as UV Control Group 1-B, and two experimental groups referred to as Experimental Groups 1-B to 2-B), were prepared based on the procedure set forth in “Source and cultivation of cell lines” of “Experimental materials”. The cells in each group were cultivated using 5 mL of a corresponding medium shown in Table 1 and a 6-cm Petri dish in an incubator (37° C., 5% CO2) for 24 hours. […]
(§2) Subsequently, the stained cells were analyzed using BD Accuri™ C6 flow cytometry, in which cells that could be stained with FITC Annexin V but not with PI (i.e., FITC Annexin V positive and PI negative) represented cells that were induced with early apoptosis; cells stained with both FITC Annexin V and PI (i.e., FITC Annexin V positive and PI positive) represented cells that were induced with late apoptosis; and cells that could not be stained with FITC Annexin V and PI (i.e., FITC Annexin V negative and PI negative) represented viable cells. […]

HaCaT cells = experiment: as above; format: cell-based, human; settings: 2 h pretreatment, ultraviolet 50 mJ/cm^2, 48 hours, mean ± SEM
Procedure: as §1, §2

## COc1cc(-c2oc3cc(O)cc(O)c3c(=O)c2O[C@@H]2O[C@H](CO)[C@@H](O)[C@H](O)[C@H]2O)ccc1O [isorhamnetin-3-O-β-D-glucoside]
NMuMG cells; 15 μM
  Apoptosis percentage: 10.6 ± 2.8%
NMuMG cells; 30 μM
  Apoptosis percentage: 10.5 ± 2.5 %
HaCaT cells; 50 μM
  Apoptosis percentage: 26.13 ± 7.26 %
HaCaT cells; 100 μM
  Apoptosis percentage: 23 ± 2.19 %

Reference: patent US9821002B2, “Method for alleviating radiation injury with isorhamnetin-3-O-β-D-glucoside” (Sinotai Oncology Associate., Ltd., priority 2015, dated 2017)
